From paper PMC5007854, “β-Nitrostyrenes as Potential Anti-leishmanial Agents” (Frontiers in Microbiology, 2016) come the findings set out here.

Molecules are shown by their SMILES. Converted amounts (≈) assume the structure as drawn. Read-outs that look alike come from different tables or passages of the source.

Experiment [1] relates to Escherichia coli ATCC 25922. Put plainly: Broth microdilution antibacterial susceptibility (MIC/MBC). Type of experiment: cell-based. As to conditions: for MIC / MBC: Escherichia coli; for MIC: ATCC25922, 24 h. In outline:
(§1)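 CLSI broth microdilution: Ca/Mg-supplemented Mueller-Hinton for bacteria (~5 × 10^5 CFU/mL, 24 h), MOPS-buffered RPMI 1640 pH 7.0 for fungi (Candida ~2.5 × 10^4, Aspergillus 0.4-5 × 10^4 CFU/mL, 48 h), 35°C, 1% DMSO, 64 to 0.12 μg/mL. MIC read visually; MBC/MFC by plating clear wells.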

For experiment [2], the system named is Pseudomonas aeruginosa ATCC 27853. Described as above. Type of experiment: cell-based. The conditions noted are these: for MIC / MBC: Pseudomonas aeruginosa; for MIC: ATCC27853, 24 h. In a few lines:
as §1

Experiment [3] concerns Staphylococcus aureus ATCC 29213. The experiment is described as above. In kind it is cell-based. As to conditions: Staphylococcus aureus; for MIC: ATCC29213, 24 h. In outline:
as §1

The subject of experiment [4] is Staphylococcus epidermidis ATCC 14990. Described as above. Type of experiment: cell-based. As to conditions: for MIC / MBC: Staphylococcus epidermidis; for MIC: ATCC14990, 24 h. In a few lines: as §1
Experiment [5] deals with L. donovani promastigotes. Put plainly: Dose-dependent anti-promastigote activity, IC50 and IC90. Type of experiment: cell-based, Leishmania donovani. As to conditions: Leishmania donovani, 72 h; for IC50: read-out: L. donovani promastigotes IC50 ± SEM; for IC90: read-out: L. donovani promastigotes IC90 ± SEM. As for the experimental part:
L. donovani parasites (MHOM/IN/83/AG83) were maintained in vivo in BALB/c mice. Promastigotes were routinely cultured at 22°C in medium M199 supplemented with 10% heat inactivated fetal bovine serum (FBS, HiMedia Laboratories, Mumbai, India), penicillin 100 (IU/ml), streptomycin (100 μg/ml). Log phase promastigotes were sub-cultured every 72–96 h, the inoculum being 2 × 10^6 cells/ml (Afrin et al., [2002]).
AmB was used as a standard antileishmanial drug control. The cell viability was evaluated by microscopically and the mean percentage viability was calculated as follows: Mean cell number of treated parasites / Mean cell number of untreated parasites × 100. The 50 and 90% inhibitory concentration (IC50 and IC90) i.e., the concentration of drugs that decreased the cell growth by 50 and 90% respectively was determined by graphical extrapolation after plotting the graph of % viability vs. concentration of drug (Islamuddin et al., [2014b]).
In vitro antileishmanial activity was expressed as IC50 by linear regression analysis. Values are mean ± SE of samples in triplicate from at least three independent experiments. Statistical analysis was performed using ANOVA followed by Dunnett's test. ^*P < 0.05, ^**P < 0.01 and ^***P < 0.001 compared with the untreated control group were considered significant.

Experiment [6] relates to L. donovani promastigotes. Kind of experiment: Leishmanicidal assay (growth reversion after wash-out). In kind it is cell-based, Leishmania donovani. As to conditions: 1 μM, 72 h treatment, then 72 h in fresh media. As for the experimental part:
To confirm the leishmanicidal effect of compounds 9, 12, 14, and 18, treated and untreated parasites (1 μM) after 72 h of incubation, were washed two times with fresh incomplete medium and finally resuspended in complete media, transferred back to 22°C and allowed to grow for 72 h. The viability of the parasites was determined microscopically (Afrin et al., [2001]).

Setting [7] is: read-out: MIC, Ec ATCC 25922, broth microdilution, 35°C, 24 h.
[8] abbreviates: ATCC25922, read-out: MBC, Ec ATCC 25922.
The mark [9] stands for this setting: broth microdilution, 35°C, 24 h.
Setting [10] is: read-out: MIC, Pa ATCC 27853, broth microdilution, 35°C, 24 h.
Setting [11] is: ATCC27853, read-out: MBC, Pa ATCC 27853.
Where [12] appears, read: ATCC29213, read-out: MBC, Sa ATCC 29213.
[13] abbreviates: read-out: MIC, Se ATCC 14990, broth microdilution, 35°C, 24 h.
Where [14] appears, read: ATCC14990, read-out: MBC, Se ATCC 14990.
Setting [15] is: ATCC25922, ≥99.9% reduction of original inoculum, read-out: MBC, Ec ATCC 25922.
The mark [16] stands for this setting: ATCC27853, ≥99.9% reduction of original inoculum, read-out: MBC, Pa ATCC 27853.
The mark [17] stands for this setting: ATCC29213, ≥99.9% reduction of original inoculum, read-out: MBC, Sa ATCC 29213.
The mark [18] stands for this setting: ATCC14990, ≥99.9% reduction of original inoculum, read-out: MBC, Se ATCC 14990.
Where [19] appears, read: 22°C, mean from three determinations.

Turning to `CC/C(=C\c1ccc([N+](=O)[O-])cc1)[N+](=O)[O-]` [Compound 9, 1-nitro-4-((E)-2-nitrobut-1-enyl) benzene], the MIC in experiment [1] (setting [7]) lay within 16 to 32 µg/mL (≈ 72 to 144 µM); in experiment [2] (setting [10]), 16 to 32 µg/mL (≈ 72 to 144 µM); in experiment [4] (setting [13]), 2 to 16 µg/mL (≈ 9 to 72 µM). Moreover, the MBC was 32 µg/mL (≈ 144 µM) in experiment [1] (setting [8]), 32 µg/mL (≈ 144 µM) in experiment [2] (setting [11]), 8 µg/mL (≈ 36 µM) in experiment [3] (setting [12]) and 4 µg/mL (≈ 18 µM) in experiment [4] (setting [14]). Also, the “MIC, Ec ATCC 25922” value in experiment [1] (setting [9]) was found to be 16 µg/mL (≈ 72 µM). Also, the “MIC, Pa ATCC 27853” value in experiment [2] (setting [9]) came out at 16 µg/mL (≈ 72 µM). Besides, the “MIC, Se ATCC 14990” value in experiment [4] (setting [9]) worked out at 4 µg/mL (≈ 18 µM). Also, the half-maximal inhibitory concentration (IC50) in experiment [5] was 23.4 ± 0.71 nM. Moreover, the IC90 in experiment [5] is 90.2 ± 1.11 nM. The “Leishmanicidal effect (reversion after wash and 72 h in fresh media)” value (shortened to “Leishmanicidal effect”) in experiment [6] is “did not revert back to their normal morphology and still appeared dead”.

Consider `CC/C(=C\c1cccc([N+](=O)[O-])c1)[N+](=O)[O-]` [Compound 12, 1-nitro-3-((E)-2-nitrobut-1-enyl) benzene], for which the minimum inhibitory concentration (MIC) in experiment [1] (setting [7]) worked out at 16 µg/mL (≈ 72 µM); in experiment [2] (setting [10]) it was 16 µg/mL (≈ 72 µM); in experiment [3] (read-out: MIC, Sa ATCC 29213, broth microdilution, 35°C, 24 h) it was 0.5 µg/mL (≈ 2.25 µM); in experiment [4] (setting [13]), 0.25 µg/mL (≈ 1.13 µM). Moreover, the MBC was 16 µg/mL (≈ 72 µM) in experiment [1] (setting [8]), 16 µg/mL (≈ 72 µM) in experiment [2] (setting [11]), 0.5 µg/mL (≈ 2.25 µM) in experiment [3] (setting [12]) and 0.25 µg/mL (≈ 1.13 µM) in experiment [4] (setting [14]). The half-inhibitory concentration (IC50) in experiment [5] was 37.8 ± 3.74 nM. Also, in experiment [5], the concentration for an effect of 90% (IC90) came out at 86.46 ± 0.21 nM. Moreover, the “Leishmanicidal effect” value in experiment [6] was “did not revert back to their normal morphology and still appeared dead”.

As to `COc1ccc(/C=C(\C)[N+](=O)[O-])cc1` [Compound 14, 1-methoxy-4-((E)-2-nitroprop-1-enyl) benzene], the MIC in experiment [1] (broth microdilution, 35°C, 24 h, read-out: MIC, Ec ATCC 25922) is 64 µg/mL (≈ 331 µM); in experiment [2] (broth microdilution, 35°C, 24 h, read-out: MIC, Pa ATCC 27853), above 64 µg/mL; in experiment [3] (broth microdilution, 35°C, 24 h, read-out: MIC, Sa ATCC 29213), 8 µg/mL (≈ 41.4 µM); in experiment [4] (broth microdilution, 35°C, 24 h, read-out: MIC, Se ATCC 14990), 4 µg/mL (≈ 20.7 µM). Also, the MBC in experiment [1] (setting [15]) was above 64 µg/mL; in experiment [2] (setting [16]), above 64 µg/mL; in experiment [3] (setting [17]), 8 µg/mL (≈ 41.4 µM); in experiment [4] (setting [18]), 4 µg/mL (≈ 20.7 µM). Moreover, the IC50 in experiment [5] (setting [19]) was 40.5 ± 1.47 nM. Moreover, the concentration for an effect of 90% (IC90) in experiment [5] (setting [19]) turned out to be 89 ± 0.52 nM. The “Leishmanicidal effect” value in experiment [6] is “did not revert back to their normal morphology and still appeared dead”.

Consider `CC/C(=C\c1ccc(O)cc1)[N+](=O)[O-]` [Compound 18, 4-((E)-2-nitrobut-1-enyl) phenol], for which the MBC in experiment [1] (setting [15]) was above 64 µg/mL; in experiment [2] (setting [16]), above 64 µg/mL; in experiment [3] (setting [17]), 16 µg/mL (≈ 82.8 µM); in experiment [4] (setting [18]), 8 µg/mL (≈ 41.4 µM). Also, in experiment [5] (setting [19]), the half-maximal inhibitory concentration (IC50) stood at 55.7 ± 2.84 nM. In experiment [5] (setting [19]), the IC90 was found to be 320 ± 3.65 nM. Also, the “Leishmanicidal effect” value in experiment [6] is “did not revert back to their normal morphology and still appeared dead”.

The term MIC denotes the smallest concentration in the dilution series that meets the test's criterion for growth inhibition. As a reminder, the MBC is the smallest concentration meeting the test's criterion for killing. A word on the IC50: it is the point on the concentration scale where inhibition reaches its midpoint. Usually IC90 stands for the concentration needed for an effect of 90%.
